In patent US20200384188A1, “SYSTEMS, DEVICES, FORMULATIONS AND METHODS FOR CONTROLLED DRUG DELIVERY” (priority 2017, published 2020):
Where “and” joins values, the source holds several entries; their conditions need not be identical. Identical values can stand only once.

Experiments:
[1] = Minipig pharmacokinetics study (BB-1802), single subcutaneous infusion via insulin pump, plasma LC-MS/MS; conditions: for half-life / Tmax: Gottingen, minipig, plasma, sc; for Tmax: mean Tmax
Procedure: The purpose of this study was to determine the pharmacokinetics of ketamine after a single subcutaneous infusion dose to minipigs.
Dose Administration: In each phase, animals received a single subcutaneous infusion (up to 18 hours) via insulin pump (Medtronic MiniMed Paradigm® Insulin Pump). The infusion pump was programmed in accordance with a Study Specific Procedure, and the infusion was continuously monitored for the duration of the dose. […] The pump was inspected, re-secured to the animal, and the dose continued.
For each phase, blood (approximately 2 mL) was collected via jugular vein catheter into tubes containing K3EDTA from each animal predose and at approximately 0.083, 0.25, 0.5, 1, 2, 4, 8, 9 (Phases 1 through 3 only), 10 (Phases lthrough 3 only), 12, 15 (Phases 4 and 5 only), 18 (Phases 4 and 5 only), 20 (Phases 4 and 5 only), 22 (Phases 4 and 5 only), and 24 hours postdose, with the following exceptions in Phase 3 for Animal 50004 (Group 1 male). […] Times were based on the start of the infusion.
Plasma samples were analyzed for concentrations of ketamine using an established liquid chromatography/mass spectrometry (LC-MS/MS) method.
Noncompartmental analysis (1) was applied to the individual plasma ketamine concentration data for males and females. The following parameters were estimated whenever possible:
Nominal doses and sampling times were used. […] Embedded zeros were excluded from pharmacokinetic analysis.

Gottingen Minipigs = test: Minipig animal observations and necropsy; assay type: in vivo, Gottingen Minipig; conditions: Animals S0001 and S0004, Group 1 males
Excerpt: All animals appeared healthy prior to dosing and throughout the duration of the study, with the following observations noted.

rats = test: Signs of anesthesia recorded during the rat pain tests; assay type: in vivo; conditions: 50 mg/kg sc via insulin pump
Procedure: Signs of anesthesia were recorded.
(§1) Day of Dosing: On the day of dosing, each animal was administered a 0.1 mL 20% suspension of Brewers Yeast subcutaneously into the sub-plantar of the right hind paw at approximately 180 minutes prior to ketamine administration. Immediately prior to ketamine administration (Group 4), 15 and 30 minutes and 1, 2, and 4 hours post administration of ketamine, each animal was assessed for a response to increasing pressure on both hind paws (Group 1 used right hind paw, Group 4 used both hind paws), using the analgesy meter. Signs of anesthesia were recorded.

male Sprague-Dawley rats = conditions: rat, in vivo
[2] = test system: rats (Group 1 Sprague-Dawley, Group 4 Han Wister); test: Randall-Selitto test (Brewers Yeast-inflamed hind paw, analgesy meter); assay type: in vivo, rat; conditions: for Force (g) applied to the inflamed (right) paw, individual animals: animals R0001-R0006, 50 mg/kg; for Force (g) applied to the inflamed (right) paw, mean: n=6
Excerpt: The Randall Selitto test is a tool to assess the response thresholds to mechanical pressure stimulation following induction of a hyperalgesic state by injection of an inflammatory agent and is considered a measure of mechanical hyperalgesia (Randall and Selitto, 1957). This involves application of an increasing force to the surface of the paw until withdrawal or vocalization occurs. The test can produce results similar to decreases on pressure pain thresholds observed in clinical conditions, such as fibromyalgia, myofascial pain, or osteoarthritis (Arendt-Nielsen et al., 2010; Bennett, 2007; Finan et al., 2013; Hsu et al., 2010). Centrally and peripherally acting effects can be detected using this model, for example, opioids increase the mechanical threshold to the normal and inflamed paw, whereas nonsteroidal anti-inflammatory drugs are only effective in the inflamed paw.
Eighteen male Sprague-Dawley rats were obtained from Charles River, Margate, United Kingdom, and were used for dosing. Animals weighed between 319 and 419 g on the day of dosing. Eight male Han Wister rats were obtained from Charles River, Margate, United Kingdom and used for Group 4. Animals weighed between 381 and 504 g on the day of dosing. The animals were assessed according to Table 1.
Animals were dosed subcutaneously via a motorized insulin pump.
The threshold of a pain response to increasing pressure was measured using an analgesy meter (Ugo Basile, Italy). The animal was gently held by a competent operator, and the hind paw of the animal was positioned over a convex surface (a cone-shaped pusher). A gradually increasing pressure (g) was applied to the upper surface of the paw. The force was continuously monitored by a pointer moving along a linear scale and was stopped by depression of a foot pedal when the animal struggled. A cut-off value of 300 g was adopted (based on available literature and experience).
Pre-dose Phase: The pressure pain threshold of each animal was tested on two occasions (once in the morning and once in the afternoon). This allowed animals to acclimate to the procedure.
as §1

Work on `CNC1(c2ccccc2Cl)CCCCC1=O` (centres unmarked) [ketamine] yielded a half-life ([1]; 8 mg/kg) of 5.76 h, a half-life ([1]; 12 mg/kg) of 5 h and a half-life ([1]; 18 mg/kg) of 3.12 h. For the same molecule, the “mean concentration values measurable through (post the start of infusion)” value ([1]; Phase 1) was 12 h, the “mean Css” value ([1]; Phase 5: 18 mg/kg, 1 mg/kg/hr, 18-hour SC infusion) was 700 ng/mL and the “steady-state, in words” value ([1]; Phases 1 through 4) was “did not appear to reach a steady-state”. For the same molecule, the “mean concentration values measurable through (post the start of infusion)” value ([1]; Phases 3 through 5) was 24 h, the “time to detectible plasma ketamine levels after initiating subcutaneous infusion” value ([1]; all animals) was at most 5 min and the “exposure to ketamine against dose level” value ([1]; dose level from 4 to 18 mg/kg) was “generally increased with the increase in dose level”. The Tmax ([1]; female, 18 mg/kg, Phases 4 and 5: 18 mg/kg, 1 mg/kg/hr, 18-hour SC infusion, female) was 13.5 h, the Tmax ([1]; male, 8 mg/kg, Phase 2: 8 mg/kg, 1 mg/kg/hr, 8-hour SC infusion, males) was 4.5 h and the Tmax ([1]; male, 12 mg/kg, Phase 3: 12 mg/kg, 1.5 mg/kg/hr, 8-hour SC infusion, males) was 2.04 h. For the same molecule, the “dose proportionality of the increases in mean Cmax and AUC0-24” value ([1]; males, dose level from 4 to 8 mg/kg) was “less than dose proportional”, the “dose proportionality of the increases in mean Cmax and AUC0-24” value ([1]; males, dose level from 8 to 12 mg/kg) was “greater than dose proportional” and the “relation of adverse effects (euthanized animals, necropsy) to the test article” value (Gottingen Minipigs) was “not test article related”. The Signs of anesthesia (rats) was “reduced righting reflex, body tone, and ataxia up to 1 hour post-dose”, the “Time (s) taken for response, individual animals” value (male Sprague-Dawley rats) was 4.2 s (2×) and 5.2 s (3×) and 5.9 s and 5.1 s and 7.7 s and 6.2 s (2×) and 4.4 s and 7.0 s and 7.5 s and 5.5 s and 6.4 s (2×) and 7.4 s (3×) and 6.5 s (2×) and 3.5 s and 5.8 s (3×) and 4.3 s and 4.9 s and 6.1 s and 5.7 s and 7.6 s and the “Time (s) taken for response, mean” value (male Sprague-Dawley rats) was 5.6 s and 5.9 s and 6.3 s. The “group mean reaction time (longest)” value (male Sprague-Dawley rats) was 6.3 s, the “group mean reaction time (shortest)” value (male Sprague-Dawley rats) was 5.6 s and the “latency of tail flick, in words” value (male Sprague-Dawley rats) was “slight increase in latency of tail flick at all post-dose time points”. For the same molecule, the “magnitude of the increase in time taken for pain to be perceived” value (male Sprague-Dawley rats) was 1.1 s, the “maximum effect, increase in time to tail flick” value (male Sprague-Dawley rats) was 21.4% and the “Force (g) applied to the inflamed (right) paw, individual animals” value (“Force (g) applied … individual animals” for short) ([2]; Group 1, 50 mg/kg sc, 0.25 h) was 90 g (2×) and 20 g and 40 g (2×) and 120 g. The “Force (g) applied to the inflamed (right) paw, mean” value (“Force (g) applied … mean” for short) ([2]; Group 1, 50 mg/kg sc, 0.25 h) was 153.3 g, the “Force (g) applied … individual animals” value ([2]; Group 1, 50 mg/kg sc, 0.5 h) was 100 g and 130 g and 80 g and 170 g and 120 g and 40 g and the “Force (g) applied … mean” value ([2]; Group 1, 50 mg/kg sc, 0.5 h) was 66.7 g. The “Force (g) applied … individual animals” value ([2]; Group 1, 50 mg/kg sc, 1 h) was 130 g and 120 g (2×) and 80 g (2×) and 60 g, the “Force (g) applied … mean” value ([2]; Group 1, 50 mg/kg sc, 1 h) was 106.7 g and the “Force (g) applied … individual animals” value ([2]; Group 1, 50 mg/kg sc, 2 h) was 60 g and 110 g and 50 g and 200 g and 120 g and 140 g. For the same molecule, the “Force (g) applied … mean” value ([2]; Group 1, 50 mg/kg sc, 2 h) was 98.3 g, the “Force (g) applied … individual animals” value ([2]; Group 1, 50 mg/kg sc, 4 h) was 120 g (2×) and 110 g and 140 g and 90 g (2×) and the “Force (g) applied … mean” value ([2]; Group 1, 50 mg/kg sc, 4 h) was 113.3 g. For the same molecule, the “pressure required to initiate a response, in words” value ([2]; Group 1, 0.5 to 2 hours post-dose versus the 15 minute time point, majority of animals) was “increase in pressure required to initiate a response” and the “% change from baseline, force on inflamed (right) paw” value ([2]; Group 4, 50 mg/kg sc, 0.25 h) was −5.7%.
